# Measurements published in paper PMC4515243, “Phase 1 pharmacokinetic study of the oral pan-AKT inhibitor MK-2206 in Japanese patients with advanced solid tumors” (Cancer Chemotherapy and Pharmacology, 2015).
# System: Japanese patients with advanced solid tumors
# Assay: phase 1 safety and tolerability (DLT, adverse events) in Japanese patients;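 further: toxicities graded by NCI CTCAE version 3.0, treatment given until disease progression or unacceptable toxicity, three to nine patients enrolled per dose level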
# Description: Treatment was continued until disease progression or the occurrence of an unacceptable toxicity.
# A minimum of three and up to nine patients were enrolled at each dose level based on the toxicity probability intervals [9].
# Adverse events were graded using the National Cancer Institute Common Terminology Criteria for Adverse Events, version 3.0.
smiles,measurement,setting,value
NC1(c2ccc(-c3nc4ccn5c(=O)[nH]nc5c4cc3-c3ccccc3)cc2)CCC1 [MK-2206],"ALT increased, drug-related adverse event, patients","45 mg QOD (n = 3), All grades",0
same,"Blood creatinine increased, drug-related adverse event, patients","45 mg QOD (n = 3), All grades",1
same,"Decreased appetite, drug-related adverse event, patients","45 mg QOD (n = 3), All grades",1
same,"Diarrhea, drug-related adverse event, patients","45 mg QOD (n = 3), All grades",1
same,"Dry skin, drug-related adverse event, patients","45 mg QOD (n = 3), All grades",2
same,"Eosinophil count increased, drug-related adverse event, patients","45 mg QOD (n = 3), All grades",0
same,"Eosinophilia, drug-related adverse event, patients","45 mg QOD (n = 3), All grades",2
same,"Erythema multiforme, drug-related adverse event, patients","45 mg QOD (n = 3), All grades",0
same,"Fatigue, drug-related adverse event, patients","45 mg QOD (n = 3), All grades",1
same,"HbA1C increased, drug-related adverse event, patients","45 mg QOD (n = 3), All grades",0
same,"Hyperglycemia, drug-related adverse event, patients","45 mg QOD (n = 3), All grades",1
same,"Hypernatremia, drug-related adverse event, patients","45 mg QOD (n = 3), All grades",0
same,"Hypoalbuminemia, drug-related adverse event, patients","45 mg QOD (n = 3), All grades",0
same,"Hypokalemia, drug-related adverse event, patients","45 mg QOD (n = 3), All grades",0
same,"Insulin c-peptide increased, drug-related adverse event, patients","45 mg QOD (n = 3), All grades",2
same,"Leukopenia, drug-related adverse event, patients","45 mg QOD (n = 3), All grades",2
same,"Localized edema, drug-related adverse event, patients","45 mg QOD (n = 3), All grades",0
same,"Lymphopenia, drug-related adverse event, patients","45 mg QOD (n = 3), All grades",2
same,"Nausea, drug-related adverse event, patients","45 mg QOD (n = 3), All grades",0
same,"Neutropenia, drug-related adverse event, patients","45 mg QOD (n = 3), All grades",2
same,"Palmar-plantar erythrodysaesthesia syndrome, drug-related adverse event, patients","45 mg QOD (n = 3), All grades",1
same,"Pruritus, drug-related adverse event, patients","45 mg QOD (n = 3), All grades",1
same,"Pyrexia, drug-related adverse event, patients","45 mg QOD (n = 3), All grades",1
same,"Rash, drug-related adverse event, patients","45 mg QOD (n = 3), All grades",3
same,"Stomatitis, drug-related adverse event, patients","45 mg QOD (n = 3), All grades",2
same,"Vomiting, drug-related adverse event, patients","45 mg QOD (n = 3), All grades",0
same,"ALT increased, drug-related adverse event, patients","45 mg QOD (n = 3), Grades 3–5",0
same,"Blood creatinine increased, drug-related adverse event, patients","45 mg QOD (n = 3), Grades 3–5",0
same,"Decreased appetite, drug-related adverse event, patients","45 mg QOD (n = 3), Grades 3–5",0
same,"Diarrhea, drug-related adverse event, patients","45 mg QOD (n = 3), Grades 3–5",1
same,"Dry skin, drug-related adverse event, patients","45 mg QOD (n = 3), Grades 3–5",0
same,"Eosinophil count increased, drug-related adverse event, patients","45 mg QOD (n = 3), Grades 3–5",0
same,"Eosinophilia, drug-related adverse event, patients","45 mg QOD (n = 3), Grades 3–5",0
same,"Erythema multiforme, drug-related adverse event, patients","45 mg QOD (n = 3), Grades 3–5",0
same,"Fatigue, drug-related adverse event, patients","45 mg QOD (n = 3), Grades 3–5",0
same,"HbA1C increased, drug-related adverse event, patients","45 mg QOD (n = 3), Grades 3–5",0
same,"Hyperglycemia, drug-related adverse event, patients","45 mg QOD (n = 3), Grades 3–5",0
same,"Hypernatremia, drug-related adverse event, patients","45 mg QOD (n = 3), Grades 3–5",0
same,"Hypoalbuminemia, drug-related adverse event, patients","45 mg QOD (n = 3), Grades 3–5",0
same,"Hypokalemia, drug-related adverse event, patients","45 mg QOD (n = 3), Grades 3–5",0
same,"Insulin c-peptide increased, drug-related adverse event, patients","45 mg QOD (n = 3), Grades 3–5",0
same,"Leukopenia, drug-related adverse event, patients","45 mg QOD (n = 3), Grades 3–5",0
same,"Localized edema, drug-related adverse event, patients","45 mg QOD (n = 3), Grades 3–5",0
same,"Lymphopenia, drug-related adverse event, patients","45 mg QOD (n = 3), Grades 3–5",2
same,"Nausea, drug-related adverse event, patients","45 mg QOD (n = 3), Grades 3–5",0
same,"Neutropenia, drug-related adverse event, patients","45 mg QOD (n = 3), Grades 3–5",1
same,"Palmar-plantar erythrodysaesthesia syndrome, drug-related adverse event, patients","45 mg QOD (n = 3), Grades 3–5",0
same,"Pruritus, drug-related adverse event, patients","45 mg QOD (n = 3), Grades 3–5",0
same,"Pyrexia, drug-related adverse event, patients","45 mg QOD (n = 3), Grades 3–5",0
same,"Rash, drug-related adverse event, patients","45 mg QOD (n = 3), Grades 3–5",0
same,"Stomatitis, drug-related adverse event, patients","45 mg QOD (n = 3), Grades 3–5",0
same,"Vomiting, drug-related adverse event, patients","45 mg QOD (n = 3), Grades 3–5",0
same,DLTs during Cycle 1,"45 mg QOD, three patients",No DLTs
same,"ALT increased, drug-related adverse event, patients","60 mg QOD (n = 9), All grades",1
same,"Blood creatinine increased, drug-related adverse event, patients","60 mg QOD (n = 9), All grades",1
same,"Decreased appetite, drug-related adverse event, patients","60 mg QOD (n = 9), All grades",1
same,"Diarrhea, drug-related adverse event, patients","60 mg QOD (n = 9), All grades",5
same,"Dry skin, drug-related adverse event, patients","60 mg QOD (n = 9), All grades",0
same,"Eosinophil count increased, drug-related adverse event, patients","60 mg QOD (n = 9), All grades",0
same,"Eosinophilia, drug-related adverse event, patients","60 mg QOD (n = 9), All grades",6
same,"Erythema multiforme, drug-related adverse event, patients","60 mg QOD (n = 9), All grades",0
same,"Fatigue, drug-related adverse event, patients","60 mg QOD (n = 9), All grades",4
same,"HbA1C increased, drug-related adverse event, patients","60 mg QOD (n = 9), All grades",2
same,"Hyperglycemia, drug-related adverse event, patients","60 mg QOD (n = 9), All grades",3
same,"Hypernatremia, drug-related adverse event, patients","60 mg QOD (n = 9), All grades",1
same,"Hypoalbuminemia, drug-related adverse event, patients","60 mg QOD (n = 9), All grades",2
same,"Hypokalemia, drug-related adverse event, patients","60 mg QOD (n = 9), All grades",1
same,"Insulin c-peptide increased, drug-related adverse event, patients","60 mg QOD (n = 9), All grades",7
same,"Leukopenia, drug-related adverse event, patients","60 mg QOD (n = 9), All grades",2
same,"Localized edema, drug-related adverse event, patients","60 mg QOD (n = 9), All grades",0
